Laboratory results from ChEMBL document CHEMBL3758166, “Fragment-based discovery of DNA gyrase inhibitors targeting the ATPase subunit of GyrB” (Bioorg Med Chem Lett, 2016).

Tests used:
[1] = Binding affinity to Escherichia coli ParE by STD-NMR Spectroscopic analysis
DNA gyrase subunit B = DNA gyrase subunit B (Staphylococcus aureus, UniProt P0A0K8); assay: Binding affinity to full length Staphylococcus aureus GyrB by STD-NMR spectroscopic analysis
DNA gyrase = DNA gyrase (Staphylococcus aureus, UniProt P0A0K8+P20831); assay: Inhibition of Staphylococcus aureus DNA gyrase ATPase activity using pBR322 DNA as substrate after 30 mins by fluorescence polarization assay; type: protein-complex assay
DNA gyrase, sequence (P0A0K8 whole entry): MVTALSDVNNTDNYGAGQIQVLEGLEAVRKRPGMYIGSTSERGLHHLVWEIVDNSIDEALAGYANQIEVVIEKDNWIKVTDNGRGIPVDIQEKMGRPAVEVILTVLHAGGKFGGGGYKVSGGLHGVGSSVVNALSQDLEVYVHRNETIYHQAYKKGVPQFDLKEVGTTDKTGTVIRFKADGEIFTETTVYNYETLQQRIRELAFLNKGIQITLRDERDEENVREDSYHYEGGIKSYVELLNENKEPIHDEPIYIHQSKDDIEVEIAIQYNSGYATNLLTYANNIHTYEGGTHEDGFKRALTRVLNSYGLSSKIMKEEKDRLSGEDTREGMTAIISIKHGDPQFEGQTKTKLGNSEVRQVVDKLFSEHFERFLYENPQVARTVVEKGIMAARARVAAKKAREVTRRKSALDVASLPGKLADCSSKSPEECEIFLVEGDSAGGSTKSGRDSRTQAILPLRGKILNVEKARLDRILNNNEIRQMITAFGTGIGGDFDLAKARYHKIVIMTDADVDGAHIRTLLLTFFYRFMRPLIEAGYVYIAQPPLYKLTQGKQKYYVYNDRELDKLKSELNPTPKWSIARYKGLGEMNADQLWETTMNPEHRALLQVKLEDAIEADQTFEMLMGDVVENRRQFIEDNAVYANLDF
DNA gyrase, sequence (P20831 whole entry): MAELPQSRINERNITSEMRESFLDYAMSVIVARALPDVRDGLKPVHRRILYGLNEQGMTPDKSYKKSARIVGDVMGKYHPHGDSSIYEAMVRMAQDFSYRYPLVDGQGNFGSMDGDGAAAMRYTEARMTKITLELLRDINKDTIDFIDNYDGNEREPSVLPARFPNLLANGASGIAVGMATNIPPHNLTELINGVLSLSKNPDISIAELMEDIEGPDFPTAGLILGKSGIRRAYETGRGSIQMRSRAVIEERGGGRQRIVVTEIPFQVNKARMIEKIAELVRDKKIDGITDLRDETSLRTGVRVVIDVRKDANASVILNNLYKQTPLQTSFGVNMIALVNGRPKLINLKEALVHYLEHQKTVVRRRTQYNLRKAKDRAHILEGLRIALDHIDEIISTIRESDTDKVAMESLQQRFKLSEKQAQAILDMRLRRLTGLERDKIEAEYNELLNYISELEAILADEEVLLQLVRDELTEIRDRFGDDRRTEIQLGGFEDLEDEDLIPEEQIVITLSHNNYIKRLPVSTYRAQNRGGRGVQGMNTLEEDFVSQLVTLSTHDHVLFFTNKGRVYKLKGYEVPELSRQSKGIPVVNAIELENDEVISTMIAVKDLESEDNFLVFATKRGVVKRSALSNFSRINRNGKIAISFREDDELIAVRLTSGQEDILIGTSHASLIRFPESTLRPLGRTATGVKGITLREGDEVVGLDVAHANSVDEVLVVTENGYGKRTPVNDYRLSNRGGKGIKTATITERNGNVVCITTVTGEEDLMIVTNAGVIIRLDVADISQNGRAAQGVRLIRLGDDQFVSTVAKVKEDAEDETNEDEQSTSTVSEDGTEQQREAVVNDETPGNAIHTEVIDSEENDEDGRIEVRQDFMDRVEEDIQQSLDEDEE

DNA gyrase subunit B, sequence (P0A0K8 whole entry): as the sequence (P0A0K8 whole entry) above

| SMILES | IC50 [1] | IC50 (DNA gyrase subunit B) [µM] | IC50 (DNA gyrase) [µM] | IC50 ([1]; read-out: IC50) [µM] |
| --- | --- | --- | --- | --- |
| Cc1cc(O)[nH]c2nnc(-c3ccccc3)c1-2 | Not Active | 840 | – | – |
| Cc1n[nH]c2c1C(c1ccccc1F)CC(=O)N2 (configuration not stated) | Not Active | 840 | – | – |
| Nc1nc(O)cc(-c2ccccc2)n1 | Not Active | 50 | – | – |
| O=c1ccc2c(-c3cnc(-c4cccnc4)s3)n[nH]c2[nH]1 | – | 50 | 0.265 | – |
| Cc1cc(=O)[nH]c2[nH]nc(-c3cnc(-c4cccnc4)s3)c12 | – | 50 | 3.25 | – |
| CCCC(=O)Nc1sccc1C(N)=O | – | 50 | – | 50 |
| O=c1cc(-c2ccccc2)c2c(-c3cnc(-c4cccnc4)s3)n[nH]c2[nH]1 | – | 50 | 1.32 | – |
| O=C1Nc2ccccc2/C1=C\c1cccnc1 | – | 840 | – | 50 |
| O=c1[nH]cnc2scc(-c3cccs3)c12 | – | 50 | – | – |
